In ChEMBL document CHEMBL4312017, “Synthesis and discovery of new compounds bearing coumarin scaffold for the treatment of pulmonary fibrosis” (Eur J Med Chem, 2020):
Active and inactive are the calls of the source. The calls are words filed in the database; no cut-off is given here.

Legend:
[1] = target: T1, Transforming growth factor beta-1 proprotein/Smad3 (Rattus norvegicus) (UniProt P84025+P17246); assay: Inhibition of TGFbeta/Smad3 pathway in rat NRK-49F cells assessed as reduction in TGF-beta1-induced COL1A1 expression in at 20 and 40 uM incubated for 24 hrs by Western blot analysis; format: cell-based
[2] = tested on: Mus musculus; assay: Antifibrotic activity against BLM-induced C57BL/6 mouse pulmonary fibrosis model assessed as increase in time for reduction of alveoli at 100 mg/kg, po administered for 28 days and measured on day 14 and 28 by HE staining based fluorescence microscopy; format: functional, organism-based
[3] = Cmax in Sprague-Dawley rat at 10 mg/kg, po measured upto 24 hrs; format: ADME, organism-based; set-up: dose 10 mg/kg, route oral; conditions: in vivo
[4] = tested on: Mus musculus; assay: Antifibrotic activity against C57BL/6 mouse pulmonary fibrosis model assessed as reduction in bleomycin-iduced hydroxyproline level at 100 mg/kg, po administered for 28 days and measured on day 14 and 28 by spectrophotometry; format: functional, organism-based
[5] = Tmax in Sprague-Dawley rat 10 mg/kg, po measured upto 24 hrs; format: ADME, organism-based; conditions: in vivo
[6] = AUC (0 to t) in Sprague-Dawley rat 10 mg/kg, po measured upto 24 hrs; format: ADME, organism-based; set-up: time < 24 hr, dose 10 mg/kg, route oral; conditions: in vivo
[7] = tested on: NRK-49F; assay: Inhibition of TGF-beta-induced collagen accumulation in rat NRK-49F cells at 10 uM incubated for 2 days by PSR staining based microscopic analysis relative to control; format: functional; conditions: 48 h
[8] = Oral bioavailability in Sprague-Dawley rat 10 mg/kg measured upto 24 hrs; format: ADME, organism-based; conditions: in vivo
[9] = Half life in Sprague-Dawley rat at 5 mg/kg, iv measured upto 24 hrs; format: ADME, organism-based; conditions: in vivo
[10] = tested on: Mus musculus; assay: Antifibrotic activity against BLM-induced C57BL/6 mouse pulmonary fibrosis model assessed as decrease in perivascular inflammatory cell infiltration at 50 mg/kg, po administered for 28 days and measured on day 14 and 28 by HE staining based fluorescence microscopy; format: functional, organism-based
[11] = tested on: Mus musculus; assay: Antifibrotic activity against BLM-induced C57BL/6 mouse pulmonary fibrosis model assessed as decrease in destruction alveolar structure at 50 mg/kg, po administered for 28 days and measured on day 14 and 28 by HE staining based fluorescence microscopy; format: functional, organism-based
[12] = AUC (0 to t) in Sprague-Dawley rat at 5 mg/kg, iv measured upto 24 hrs; format: ADME, organism-based; set-up: dose 5 mg/kg, time < 24 hr, route intravenous; conditions: in vivo
[13] = tested on: Mus musculus; assay: Antifibrotic activity against BLM-induced C57BL/6 mouse pulmonary fibrosis model assessed as reduction in total white blood cells in BALF at 50 mg/kg, po administered for 28 days and measured on day 28; format: functional, organism-based
[14] = tested on: Mus musculus; assay: Antifibrotic activity against BLM-induced C57BL/6 mouse pulmonary fibrosis model assessed as reduction in neutrophils in BALF at 100 mg/kg, po administered for 28 days and measured on day 28; format: functional, organism-based
[15] = tested on: Mus musculus; assay: Antifibrotic activity against BLM-induced C57BL/6 mouse pulmonary fibrosis model assessed as increase in time for reduction of alveoli at 50 mg/kg, po administered for 28 days and measured on day 14 and 28 by HE staining based fluorescence microscopy; format: functional, organism-based
[16] = Tmax in Sprague-Dawley rat at 5 mg/kg, iv measured upto 24 hrs; format: ADME, organism-based; conditions: in vivo
[17] = tested on: Mus musculus; assay: Antifibrotic activity against BLM-induced C57BL/6 mouse pulmonary fibrosis model assessed as decrease in bronchial epithelial vacuolar degeneration at 50 mg/kg, po administered for 28 days and measured on day 14 and 28 by HE staining based fluorescence microscopy; format: functional, organism-based
[18] = Clearance in Sprague-Dawley rat 10 mg/kg, po measured upto 24 hrs; format: ADME, organism-based; conditions: in vivo
[19] = tested on: NRK-49F; assay: Inhibition of TGF-beta-induced collagen accumulation in rat NRK-49F cells incubated for 2 days by PSR staining based microscopic analysis; format: functional, cell-based
[20] = tested on: Mus musculus; assay: Antifibrotic activity against BLM-induced C57BL/6 mouse pulmonary fibrosis model assessed as reduction in lymphocytes in BALF at 50 mg/kg, po administered for 28 days and measured on day 28; format: functional, organism-based
[21] = tested on: Mus musculus; assay: Antifibrotic activity against BLM-induced C57BL/6 mouse pulmonary fibrosis model assessed as decrease in bronchial epithelial vacuolar degeneration at 100 mg/kg, po administered for 28 days and measured on day 14 and 28 by HE staining based fluorescence microscopy; format: functional, organism-based
[22] = tested on: Mus musculus; assay: Antifibrotic activity against BLM-induced C57BL/6 mouse pulmonary fibrosis model assessed as reduction in neutrophils in BALF at 50 mg/kg, po administered for 28 days and measured on day 28; format: functional, organism-based
[23] = target: T1, Transforming growth factor beta-1 proprotein/Smad3 (Rattus norvegicus); assay: Inhibition of TGFbeta/Smad3 pathway in rat NRK-49F cells assessed as reduction in TGF-beta1-induced alpha-SMA expression in at 20 and 40 uM incubated for 24 hrs by Western blot analysis; format: cell-based
[24] = Cytotoxicity against rat NRK-49F cells assessed as cell viability at 10 uM incubated for 72 hrs by MTT assay; format: cell-based; conditions: read-out: Activity
[25] = tested on: Mus musculus; assay: Antifibrotic activity against C57BL/6 mouse pulmonary fibrosis model assessed as reduction in bleomycin-iduced hydroxyproline level at 50 mg/kg, po administered for 28 days and measured on day 14 and 28 by spectrophotometry; format: functional, organism-based
[26] = tested on: Mus musculus; assay: Antifibrotic activity against BLM-induced C57BL/6 mouse pulmonary fibrosis model assessed as decrease in bronchiolar epithelial cell shedding at 100 mg/kg, po administered for 28 days and measured on day 14 and 28 by HE staining based fluorescence microscopy; format: functional, organism-based
[27] = tested on: NIH3T3; assay: Inhibition of TGF-beta-induced […] migration in mouse NIH/3T3 cells at 1 uM incubated for 24 hrs by Transwell assay; format: functional, cell-based
[28] = tested on: Mus musculus; assay: Antifibrotic activity against BLM-induced C57BL/6 mouse pulmonary fibrosis model assessed as decrease in bronchioles inflammatory cell infiltration at 50 mg/kg, po administered for 28 days and measured on day 14 and 28 by HE staining based fluorescence microscopy; format: functional, organism-based
[29] = Half life in Sprague-Dawley rat 10 mg/kg, po measured upto 24 hrs; format: ADME, organism-based; conditions: in vivo
[30] = tested on: Mus musculus; assay: Antifibrotic activity against BLM-induced C57BL/6 mouse pulmonary fibrosis model assessed as decrease in perivascular inflammatory cell infiltration at 100 mg/kg, po administered for 28 days and measured on day 14 and 28 by HE staining based fluorescence microscopy; format: functional, organism-based
[31] = tested on: Mus musculus; assay: Antifibrotic activity against BLM-induced C57BL/6 mouse pulmonary fibrosis model assessed as reduction in total white blood cells in BALF at 100 mg/kg, po administered for 28 days and measured on day 28; format: functional, organism-based
[32] = Cmax in Sprague-Dawley rat at 5 mg/kg, iv measured upto 24 hrs; format: ADME, organism-based; set-up: dose 5 mg/kg, route intravenous; conditions: in vivo
[33] = tested on: Mus musculus; assay: Antifibrotic activity against BLM-induced C57BL/6 mouse pulmonary fibrosis model assessed as decrease in bronchiolar epithelial cell shedding at 50 mg/kg, po administered for 28 days and measured on day 14 and 28 by HE staining based fluorescence microscopy; format: functional, organism-based
[34] = target: T1, Transforming growth factor beta-1 proprotein/Smad3 (Rattus norvegicus); assay: Inhibition of TGFbeta/Smad3 pathway in rat NRK-49F cells assessed as reduction in TGF-beta1-induced Smad3 phosphorylation at 20 and 40 uM incubated for 24 hrs by Western blot analysis; format: cell-based
[35] = tested on: Mus musculus; assay: Antifibrotic activity against BLM-induced C57BL/6 mouse pulmonary fibrosis model assessed as decrease in destruction alveolar structure at 100 mg/kg, po administered for 28 days and measured on day 14 and 28 by HE staining based fluorescence microscopy; format: functional, organism-based
[36] = Toxicity in BLM-induced C57BL/6 mouse pulmonary fibrosis model assessed as survival rate at 50 and 100 mg/kg, po observed for 28 days; format: organism-based; conditions: in vivo
[37] = tested on: Mus musculus; assay: Antifibrotic activity against BLM-induced C57BL/6 mouse pulmonary fibrosis model assessed as decrease in bronchioles inflammatory cell infiltration at 100 mg/kg, po administered for 28 days and measured on day 14 and 28 by HE staining based fluorescence microscopy; format: functional, organism-based
[38] = tested on: Mus musculus; assay: Antifibrotic activity against BLM-induced C57BL/6 mouse pulmonary fibrosis model assessed as reduction in lymphocytes in BALF at 100 mg/kg, po administered for 28 days and measured on day 28; format: functional, organism-based

T1 sequence (P17246 whole entry, looked up): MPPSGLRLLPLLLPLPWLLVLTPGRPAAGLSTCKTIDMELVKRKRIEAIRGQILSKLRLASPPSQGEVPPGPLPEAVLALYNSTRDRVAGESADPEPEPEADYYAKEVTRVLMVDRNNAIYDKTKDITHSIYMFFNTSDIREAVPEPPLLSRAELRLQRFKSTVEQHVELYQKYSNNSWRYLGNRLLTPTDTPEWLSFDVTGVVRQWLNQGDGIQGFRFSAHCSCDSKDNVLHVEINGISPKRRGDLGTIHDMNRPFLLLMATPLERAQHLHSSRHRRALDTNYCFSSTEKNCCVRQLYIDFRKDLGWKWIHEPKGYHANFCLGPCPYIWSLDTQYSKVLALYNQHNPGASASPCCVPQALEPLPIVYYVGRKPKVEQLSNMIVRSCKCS
T1 sequence (P84025 whole entry, looked up): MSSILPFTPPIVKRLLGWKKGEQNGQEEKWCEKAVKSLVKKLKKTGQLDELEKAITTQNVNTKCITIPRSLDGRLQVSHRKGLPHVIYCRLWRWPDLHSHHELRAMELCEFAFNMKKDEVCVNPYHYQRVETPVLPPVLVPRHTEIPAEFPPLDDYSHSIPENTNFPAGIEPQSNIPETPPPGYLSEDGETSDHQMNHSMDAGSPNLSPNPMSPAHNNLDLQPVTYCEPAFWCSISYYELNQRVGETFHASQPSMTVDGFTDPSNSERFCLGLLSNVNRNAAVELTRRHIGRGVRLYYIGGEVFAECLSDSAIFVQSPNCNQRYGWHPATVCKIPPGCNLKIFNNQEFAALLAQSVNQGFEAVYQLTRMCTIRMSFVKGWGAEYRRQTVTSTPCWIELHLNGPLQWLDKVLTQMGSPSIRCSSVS

In the case of O=C(CN1CCCCC1)Nc1ccc(Oc2cc(=O)oc3ccccc23)cc1, the inhibition [1] is reported as “Active”, the Activity [2] is reported as “Active” and the Cmax [3] is reported as 0.0747 µg/mL. The Activity [4] was “Active”, the Tmax [5] was 0.63 h and the AUC(0-t) at 24 h [6] was 1.1 µg·h/mL. The inhibition at 10 µM [7] was 85.1%, the bioavailability [8] was 39.9% and the half-life [9] was 7.42 h. For the same molecule, the Activity [10] was “Active”, the Activity [11] was “Active” and the AUC(0-t) at 24 h [12] was 1.39 µg·h/mL. The Activity [13] was “Active”, the Activity [14] was “Active” and the Activity [15] was “Active”. For the same molecule, the Tmax [16] was 2.68 h, the Activity [17] was “Active” and the CL/F [18] was 6.45 L/h/kg. The inhibition [19] was “Dose-dependent effect”, the IC50 ([19]; 48 h) was 4.31 µM and the Activity [20] was “Active”. For the same molecule, the Activity [21] was “Active”, the Activity [22] was “Active” and the inhibition [23] was “Active”. For the same molecule, the viability at 72 h, 10 µM [24] was 93.6%, the Activity [25] was “inactive” and the Activity [26] was “Active”. For the same molecule, the inhibition [27] was “Active”, the Activity [28] was “Active” and the half-life [29] was 13.1 h. The Activity [30] was “Active”, the Activity [31] was “Active” and the Cmax [32] was 0.316 µg/mL. The Activity [33] was “Active”, the inhibition [34] was “Active” and the Activity [35] was “Active”. For the same molecule, the survival at 672 h [36] was 90%, the Activity [37] was “Active” and the Activity [38] was “Active”.
